Data: US6995159B2, “5-HT receptor ligands and uses thereof” (Pfizer Inc., priority 2001, dated 2006)
Structures can show the parent of a compound that is named as a salt.

Key:
5-HT2a receptor = experiment: Functional assay (FLIPR calcium, Fluo 4-AM) in 5-HT2a expressed cells; type: cell-based; settings: 5-HT2a expressed NIH 3T3 cells; for 5-HT2a functional activity: at 10 μM
Protocol: (§1) Swiss 3T3 cells expressing r-5HT2C, r-5HT2A, h-5HT2C or h-5HT2A receptors are seeded at a density of 12,500 cells/well in 384 well black/clear collagen-coated plates. Forty eight (48) hrs later the cells are loaded with the calcium sensitive dye, Fluo 4-AM (4 μM dissolved in DMSO containing pluronic acid) in serum free DMEM in the presence of probenicid (2.5 mM) for 75 minutes at 37° C. in a CO2 incubator. Unincorporated dye is removed by washing 3 times with a HEPES-buffered saline containing probenicid (2.5 mM) using a Skatron™ cell washer (final volume 30 μL).
(§2) Plates are added to a fluorometric imaging plate reader (FLIPR 384 available from Molecular Devices Corporation) individually and fluorescence measurements are taken every 2 seconds over an 85 seconds period. Test compound additions are made simultaneously to all 384 wells after 20 seconds of baseline recording. Concentration-response curves are generated using Graphpad Prism™ (available from GraphPad Software, Inc., San Diego, Calif.) and agonist efficacies are generated as % of the response to 10 μM 5-HT (considered as 100%). Estimation of antagonist potencies (functional Kis) are generated by measuring inhibition of the test compound response to 5-HT (10 nM for 5-HT2C and 50 nM for 5-HT2A) and applying the Cheng Prusoff equation.
The functional data for the compounds listed in the Examples above utilizing the 5-HT2a expressed NIH 3T3 cells is summarized below.

5-HT2c receptor = experiment: Functional assay (FLIPR calcium, Fluo 4-AM) in 5-HT2c expressed cells; type: cell-based; settings: 5-HT2c expressed NIH 3T3 cells; for 5-HT2c functional activity: at 10 μM
Protocol: as §1, §2
The functional data for the compounds listed in the Examples above utilizing the 5-HT2c expressed NIH 3T3 cells is summarized below.

| SMILES | functional mode at 5-HT2a (partial agonist / full antagonist) (5-HT2a receptor) | also measured |
| --- | --- | --- |
| Cc1cc(N2CCNCC2)nc(OCc2cccc(OC(F)(F)F)c2)n1 [Example 1-F, 4-Methyl-6-piperazin-1-yl-2-(3-trifluoromethoxy-benzyloxy)-pyrimidine] | – | 5-HT2a functional activity (5-HT2a receptor): no functional activity |
| Cl.c1ccc(CNc2ccnc(N3CCNCC3)n2)cc1 [Example 4-D, Benzyl-(2-piperazin-1-yl-pyrimidin-4-yl)-amine, hydrochloride] | full antagonists | – |
| C[C@H](Oc1nccc(N2CCNCC2)n1)c1ccccc1 [Example 1-AG, 2-[(1S)-Phenyl-ethoxy]-4-piperazin-1-yl-pyrimidine] | – | 5-HT2a functional activity (5-HT2a receptor): no functional activity |
| C[C@H]1CNCCN1c1ccnc(OCc2cc(F)ccc2F)n1 [Example 1-WW, 2-(2,5-Difluoro-benzyloxy)-4-[(2S)-methyl-piperazin-1-yl]-pyrimidine] | full antagonists | – |
| Cl.Clc1cc(Cl)cc(COc2nccc(N3CCNCC3)n2)c1 [Example 1-HH, 2-(3,5-Dichloro-benzyloxy)-4-piperazin-1-yl-pyrimidine, hydrochloride] | full antagonists | – |
| Cc1cc(N2CCNCC2)nc(OCc2cccc(Oc3ccccc3)c2)n1 [Example 1-D, 4-Methyl-2-(3-phenoxy-benzyloxy)-6-piperazin-1-yl-pyrimidine] | – | 5-HT2a functional activity (5-HT2a receptor): no functional activity |
| Fc1ccc(COc2ccnc(N3CCNCC3)n2)cc1F [Example 2-G, 4-(3,4-Difluoro-benzyloxy)-2-piperazin-1-yl-pyrimidine] | full antagonists | – |
| Cl.Clc1cccc(CNc2ccnc(N3CCNCC3)n2)c1 [Example 4-A, (3-Chloro-benzyl)-(2-piperazin-1-yl-pyrimidin-4-yl)-amine, hydrochloride] | full antagonists | – |
| Fc1ccc(COc2nccc(N3CCNCC3)n2)cc1F [Example 1-U, 2-(3,4-Difluoro-benzyloxy)-4-piperazin-1-yl-pyrimidine] | full antagonists | – |
| Cc1ccc(COc2ccnc(N3CCNCC3)n2)cc1C.Cl [Example 2-H, 4-(3,4-Dimethyl-benzyloxy)-2-piperazin-1-yl-pyrimidine, hydrochloride] | full antagonists | 5-HT2c functional activity (5-HT2c receptor): no 5-HT2c functional activity |
| Cl.FC(F)(F)Oc1ccccc1COc1nccc(N2CCNCC2)n1 [Example 1-II, 4-Piperazin-1-yl-2-(2-trifluoromethoxy-benzyloxy)-pyrimidine, hydrochloride] | full antagonists | – |
| Clc1ccc(COc2ccnc(N3CCNCC3)n2)cc1Cl [Example 2-F, 4-(3,4-Dichloro-benzyloxy)-2-piperazin-1-yl-pyrimidine] | full antagonists | functional mode at 5-HT2c (partial agonist / full antagonist) (5-HT2c receptor): full antagonists |
| Cl.Clc1cccc(COc2nccc(N3CCNCC3)n2)c1Cl [Example 1-GG, 2-(2,3-Dichloro-benzyloxy)-4-piperazin-1-yl-pyrimidine, hydrochloride] | full antagonists | – |
| CC(Oc1ccnc(N2CCNCC2)n1)c1ccc(Cl)cc1 (stereo not shown) [Example 2-D, 4-[1-(4-Chloro-phenyl)-ethoxy]-2-piperazin-1-yl-pyrimidine] | – | 5-HT2c functional activity (5-HT2c receptor): no 5-HT2c functional activity |
| COc1cccc(COc2nc(C)cc(N3CCNCC3)n2)c1 [Example 1-AL, 2-(3-Methoxy-benzyloxy)-4-methyl-6-piperazin-1-yl-pyrimidine] | full antagonists | 5-HT2a functional activity (5-HT2a receptor): no functional activity |
| Cl.Fc1cccc(COc2nccc(N3CCNCC3)n2)c1F [Example 1-Y, 2-(2,3-Difluoro-benzyloxy)-4-piperazin-1-yl-pyrimidine, hydrochloride] | full antagonists | – |
| FC(F)(F)c1cc(COc2nccc(N3CCNCC3)n2)cc(C(F)(F)F)c1 [Example 1-QQ, 2-(3,5-Bis-trifluoromethyl-benzyloxy)-4-piperazin-1-yl-pyrimidine] | – | 5-HT2c functional activity (5-HT2c receptor): no 5-HT2c functional activity; 5-HT2a functional activity (5-HT2a receptor): no functional activity |
| Fc1cc(COc2nccc(N3CCNCC3)n2)cc(F)c1F [Example 1-YY, 4-Piperazin-1-yl-2-(3,4,5-trifluoro-benzyloxy)-pyrimidine] | full antagonists | – |
| Fc1ccc(COc2ccnc(N3CCNCC3)n2)cc1 [Example 2-E, 4-(4-Fluoro-benzyloxy)-2-piperazin-1-yl-pyrimidine] | full antagonists | – |
| Fc1cccc(CNc2ccnc(N3CCNCC3)n2)c1.O=C(O)/C=C/C(=O)O [Example 4-C, (3-Fluoro-benzyl)-(2-piperazin-1-yl-pyrimidin-4-yl)-amine, fumarate] | full antagonists | – |
| Fc1cccc(COc2ccnc(N3CCNCC3)n2)c1F.O=C(O)C(F)(F)F [Example 2-I, 4-(2,3-Difluoro-benzyloxy)-2-piperazin-1-yl-pyrimidine, trifluoroacetate] | full antagonists | – |
| Cl.c1ccc(CNc2nccc(N3CCNCC3)n2)cc1 [Example 3-D, Benzyl-(4-piperazin-1-yl-pyrimidin-2-yl)-amine, hydrochloride] | full antagonists | – |
| Fc1ccc(C(F)(F)F)c(COc2nccc(N3CCNCC3)n2)c1 [Example 1-PP, 2-(5-Fluoro-2-trifluoromethyl-benzyloxy)-4-piperazin-1-yl-pyrimidine] | full antagonists | functional mode at 5-HT2c (partial agonist / full antagonist) (5-HT2c receptor): full antagonists |
| C[C@@H]1CN(c2ccnc(OCc3cccc(Cl)c3)n2)CCN1 [Example 1-MM, 2-(3-Chloro-benzyloxy)-4-[(3R)-methyl-piperazin-1-yl]pyrimidine] | full antagonists | – |
| Cl.Clc1cccc(Cl)c1COc1nccc(N2CCNCC2)n1 [Example 1-FF, 2-(2,6-Dichloro-benzyloxy)-4-piperazin-1-yl-pyrimidine, hydrochloride] | full antagonists | – |
| Cl.Fc1cccc(CNc2ccnc(N3CCNCC3)n2)c1 [Example 4-B, (3-Fluoro-benzyl)-(2-piperazin-1-yl-pyrimidin-4-yl)-amine, hydrochloride] | full antagonists | – |
| Clc1ccc(COc2nccc(N3CCNCC3)n2)cc1Cl [Example 1-S, 2-(3,4-Dichloro-benzyloxy)-4-piperazin-1-yl-pyrimidine] | full antagonists | – |
| C[C@H]1CNCCN1c1ccnc(OCc2cc(Cl)ccc2Cl)n1 [Example 1-VV, 2-(2,5-Dichloro-benzyloxy)-4-[(2S)-methyl-piperazin-1-yl]-pyrimidine] | full antagonists | – |
| Clc1cccc(COc2nccc(N3CCNCC3)n2)n1 [Example 5-A, 2-(6-Chloro-pyrdin-2-ylmethoxy)-4-piperazin-1-yl-pyrimidine, hydrochloride] | full antagonists | – |
